{"source": "patent US8652999B1", "about": "“Herbicidal compositions comprising 4-amino-3-chloro-5-fluoro-6-(4-chloro-2-fluoro-3-methoxyphenyl)pyridine-2-carboxylic acid or a derivative thereof and a sulfonylaminocarbonyltriazolinone” (Dow AgroSciences, LLC., priority 2012, dated 2014)", "format_in_all_cases": "in vivo", "key": {"Veronica persica (VERPE)": {"system": "Veronica persica (VERPE)", "experiment": "Postemergence herbicidal activity, greenhouse, VERPE", "details": "foliar, 20-22 days", "experimental": "(§1) Evaluation of Postemergence Herbicidal Activity of Mixtures in Cereal Crops\n(§2) Seeds of the desired test plant species were planted in Sun Gro MetroMix® 306 planting mixture, which typically has a pH of 6.0 to 6.8 and an organic matter content of about 30 percent, in plastic pots with a surface area of 103.2 square centimeters (cm^2). […] The plants were grown for 7-36 days in a greenhouse with an approximate 14 hour photoperiod which was maintained at about 18° C. during the day and 17° C. during the night. Nutrients and water were added on a regular basis and supplemental lighting was provided with overhead metal halide 1000-Watt lamps as necessary. The plants were employed for testing when they reached the second or third true leaf stage.\n(§3) Treatments consisted of the benzyl ester of the compound of formula (I) (Compound A as listed in Tables 1-8) and a second cereal herbicide alone and in combination. […] The concentrated stock solutions were diluted to 1.5 mg ai/mL with the addition of 2 volumes of an aqueous mixture containing acetone, water, isopropyl alcohol, DMSO, Agri-dex crop oil concentrate, and Triton® X-77 surfactant in a 64.7:26.0:6.7:2.0:0.7:0.01 v/v ratio. A dilution solution was prepared by mixing 1 volume of 97:3 v/v acetone/DMSO and 2 volumes of an aqueous mixture containing acetone, water, isopropyl alcohol, DMSO, Agri-dex crop oil concentrate, and Triton® X-77 surfactant in a 64.7:26.0:6.7:2.0:0.7:0.01 v/v ratio. Compound requirements are based upon a 12 mL application volume at a rate of 187 liters per hectare (L/ha). […] Formulated compounds were applied to the plant material with an overhead Mandel track sprayer equipped with 8002E nozzles calibrated to deliver 187 L/ha over an application area of 0.503 square meters (m^2) at a spray height of 18 inches (43 cm) above average plant canopy. Control plants were sprayed in the same manner with the solvent blank.\n(§4) The treated plants and control plants were placed in a greenhouse as described above and watered by sub-irrigation to prevent wash-off of the test compounds. After 20-22 days, the condition of the test plants as compared with that of the control plants was determined visually and scored on a scale of 0 to 100 percent where 0 corresponds to no injury and 100 corresponds to complete kill.\n(§5) Colby's equation was used to determine the herbicidal effects expected from the mixtures (Colby, S. R. 1967. Calculation of the synergistic and antagonistic response of herbicide combinations. Weeds 15:20-22.). Specifically, the following equation was used to calculate the expected activity of mixtures containing two active ingredients, A and B: Expected=A+B−(A×B/100) • A=observed efficacy of active ingredient A at the same concentration as used in the mixture. • B=observed efficacy of active ingredient B at the same concentration as used in the mixture."}, "Stellaria media (STEME)": {"system": "Stellaria media (STEME)", "experiment": "Postemergence herbicidal activity, greenhouse, STEME", "details": "foliar, 20-22 days", "experimental": "as §1, §2, §3, §4, §5"}, "[1]": {"system": "Matricaria chamomila (MATCH)", "experiment": "Postemergence herbicidal activity, greenhouse, MATCH", "details": "foliar, 20-22 days", "experimental": "as §1, §2, §3, §4, §5"}, "Cirsium arvense (CIRAR)": {"system": "Cirsium arvense (CIRAR)", "experiment": "Postemergence herbicidal activity, greenhouse, CIRAR", "details": "foliar, 20-22 days", "experimental": "as §1, §2, §3, §4, §5"}, "[2]": {"system": "Alopecurus myosuroides (ALOMY)", "experiment": "Postemergence herbicidal activity, greenhouse, ALOMY", "details": "foliar, 20-22 days", "experimental": "as §1, §2, §3, §4, §5"}, "[3]": {"system": "Apera spica-venti (APESV)", "experiment": "Postemergence herbicidal activity, greenhouse, APESV", "details": "foliar, 20-22 days", "experimental": "as §1, §2, §3, §4, §5"}, "[4]": {"system": "Lolium multiflorum subsp. gaudini (LOLMG)", "experiment": "Postemergence herbicidal activity, greenhouse, LOLMG", "details": "foliar, 20-22 days", "experimental": "as §1, §2, §3, §4, §5"}, "[5]": {"system": "Triticum aestivum (TRZAW)", "experiment": "Postemergence herbicidal activity, greenhouse, TRZAW", "details": "foliar, 20-22 days", "experimental": "as §1, §2, §3, §4, §5"}, "Papaver rhoeas (PAPRH)": {"system": "Papaver rhoeas (PAPRH)", "experiment": "Postemergence herbicidal activity, greenhouse, PAPRH", "details": "foliar, 20-22 days", "experimental": "as §1, §2, §3, §4, §5"}, "Salsola tragus (SASKR)": {"system": "Salsola tragus (SASKR)", "experiment": "Postemergence herbicidal activity, greenhouse, SASKR", "details": "foliar, 20-22 days", "experimental": "as §1, §2, §3, §4, §5"}, "Viola tricolor (VIOTR)": {"system": "Viola tricolor (VIOTR)", "experiment": "Postemergence herbicidal activity, greenhouse, VIOTR", "details": "foliar, 20-22 days", "experimental": "as §1, §2, §3, §4, §5"}, "Lamium purpureum (LAMPU)": {"system": "Lamium purpureum (LAMPU)", "experiment": "Postemergence herbicidal activity, greenhouse, LAMPU", "details": "Propoxycarbazone-Na 15 g/ha; foliar; 20-22 days", "experimental": "as §1, §2, §3, §4\n(§6) Colby's equation was used to determine the herbicidal effects expected from the mixtures (Colby, S. R. 1967. Calculation of the synergistic and antagonistic response of herbicide combinations. Weeds 15:20-22.). […]"}, "Setaria viridis (SETVI)": {"system": "Setaria viridis (SETVI)", "experiment": "Postemergence herbicidal activity, greenhouse, SETVI", "details": "foliar, 20-22 days", "experimental": "as §1, §2, §3, §4, §6"}, "Kochia scoparia (KCHSC)": {"system": "Kochia scoparia (KCHSC)", "experiment": "Postemergence herbicidal activity, greenhouse, KCHSC", "details": "foliar, 20-22 days", "experimental": "as §1, §2, §3, §4, §5"}, "[6]": {"details": "Propoxycarbazone-Na 7.5 g ai/ha"}}, "data": [{"smiles": "COc1nn(C(=O)NS(=O)(=O)c2ccccc2OC(F)(F)F)c(=O)n1C", "note": "[Flucarbazone-Na, 4,5-dihydro-3-methoxy-4-methyl-5-oxo-N-[[2-(trifluoromethoxy)phenyl]sulfonyl]-1H-1,2,4-triazole-1-carboxamide]", "values": [{"measurement": "VERPE Obs", "setting": "Veronica persica (VERPE); Flucarbazone-Na 3.75 g ai/ha", "value": 0, "unit": "%"}, {"measurement": "VERPE Obs", "setting": "Veronica persica (VERPE); Flucarbazone-Na 7.5 g ai/ha", "value": 0, "unit": "%"}, {"measurement": "VERPE Obs", "setting": "Veronica persica (VERPE); Flucarbazone-Na 7.5 g/ha", "value": 0, "unit": "%"}, {"measurement": "STEME Obs", "setting": "Stellaria media (STEME); Flucarbazone-Na 3.75 g ai/ha", "value": 3, "unit": "%"}, {"measurement": "STEME Obs", "setting": "Stellaria media (STEME); Flucarbazone-Na 7.5 g ai/ha", "value": 7, "unit": "%"}, {"measurement": "STEME Obs", "setting": "Stellaria media (STEME); Flucarbazone-Na 7.5 g/ha", "value": 60, "unit": "%"}, {"measurement": "MATCH Obs", "setting": "[1]; Flucarbazone-Na 3.75 g ai/ha", "value": 10, "unit": "%"}, {"measurement": "MATCH Obs", "setting": "[1]; Flucarbazone-Na 7.5 g ai/ha", "value": 10, "unit": "%"}, {"measurement": "MATCH Obs", "setting": "[1]; Flucarbazone-Na 7.5 g/ha", "value": 30, "unit": "%"}, {"measurement": "CIRAR Obs", "setting": "Cirsium arvense (CIRAR); Flucarbazone-Na 7.5 g/ha", "value": 50, "unit": "%"}, {"measurement": "ALOMY Obs", "setting": "[2]; Flucarbazone-Na 3.75 g/ha", "value": 8, "unit": "%"}, {"measurement": "ALOMY Obs", "setting": "[2]; Flucarbazone-Na 7.5 g/ha", "value": 17, "unit": "%"}, {"measurement": "APESV Obs", "setting": "[3]; Flucarbazone-Na 3.75 g/ha", "value": 33, "unit": "%"}, {"measurement": "APESV Obs", "setting": "[3]; Flucarbazone-Na 7.5 g/ha", "value": 75, "unit": "%"}, {"measurement": "LOLMG Obs", "setting": "[4]; Flucarbazone-Na 3.75 g/ha", "value": 0, "unit": "%"}, {"measurement": "LOLMG Obs", "setting": "[4]; Flucarbazone-Na 7.5 g/ha", "value": 0, "unit": "%"}, {"measurement": "TRZAW Obs", "setting": "[5]; Flucarbazone-Na 3.75 g ai/ha", "value": 2, "unit": "%"}, {"measurement": "TRZAW Obs", "setting": "[5]; Flucarbazone-Na 7.5 g ai/ha", "value": 7, "unit": "%"}, {"measurement": "PAPRH Obs", "setting": "Papaver rhoeas (PAPRH); Flucarbazone-Na 3.75 g ai/ha", "value": 0, "unit": "%"}, {"measurement": "PAPRH Obs", "setting": "Papaver rhoeas (PAPRH); Flucarbazone-Na 7.5 g ai/ha", "value": 0, "unit": "%"}, {"measurement": "SASKR Obs", "setting": "Salsola tragus (SASKR); Flucarbazone-Na 3.75 g ai/ha", "value": 10, "unit": "%"}, {"measurement": "SASKR Obs", "setting": "Salsola tragus (SASKR); Flucarbazone-Na 7.5 g ai/ha", "value": 7, "unit": "%"}, {"measurement": "VIOTR Obs", "setting": "Viola tricolor (VIOTR); Flucarbazone-Na 3.75 g ai/ha", "value": 7, "unit": "%"}, {"measurement": "VIOTR Obs", "setting": "Viola tricolor (VIOTR); Flucarbazone-Na 7.5 g ai/ha", "value": 7, "unit": "%"}]}, {"smiles": "CCCOc1nn(C(=O)NS(=O)(=O)c2ccccc2C(=O)OC)c(=O)n1C", "note": "[Propoxycarbazone-Na, methyl 2-[[[(4,5-dihydro-4-methyl-5-oxo-3-propoxy-1H-1,2,4-triazol-1-yl)-carbonyl]amino]sulfonyl]benzoate]", "values": [{"measurement": "STEME Obs", "setting": "Stellaria media (STEME); [6]", "value": 12, "unit": "%"}, {"measurement": "STEME Obs", "setting": "Stellaria media (STEME); Propoxycarbazone-Na 15 g ai/ha", "value": 10, "unit": "%"}, {"measurement": "STEME Obs", "setting": "Stellaria media (STEME); Propoxycarbazone-Na 15 g/ha", "value": 45, "unit": "%"}, {"measurement": "MATCH Obs", "setting": "[1]; [6]", "value": 13, "unit": "%"}, {"measurement": "MATCH Obs", "setting": "[1]; Propoxycarbazone-Na 15 g ai/ha", "value": 20, "unit": "%"}, {"measurement": "CIRAR Obs", "setting": "Cirsium arvense (CIRAR); Propoxycarbazone-Na 15 g/ha", "value": 65, "unit": "%"}, {"measurement": "ALOMY Obs", "setting": "[2]; Propoxycarbazone-Na 7.5 g ha", "value": 10, "unit": "%"}, {"measurement": "ALOMY Obs", "setting": "[2]; Propoxycarbazone-Na 15 g ha", "value": 43, "unit": "%"}, {"measurement": "APESV Obs", "setting": "[3]; Propoxycarbazone-Na 7.5 g ha", "value": 17, "unit": "%"}, {"measurement": "APESV Obs", "setting": "[3]; Propoxycarbazone-Na 15 g ha", "value": 23, "unit": "%"}, {"measurement": "LOLMG Obs", "setting": "[4]; Propoxycarbazone-Na 7.5 g ha", "value": 3, "unit": "%"}, {"measurement": "LOLMG Obs", "setting": "[4]; Propoxycarbazone-Na 15 g ha", "value": 20, "unit": "%"}, {"measurement": "TRZAW Obs", "setting": "[5]; [6]", "value": 8, "unit": "%"}, {"measurement": "TRZAW Obs", "setting": "[5]; Propoxycarbazone-Na 15 g ai/ha", "value": 5, "unit": "%"}, {"measurement": "PAPRH Obs", "setting": "Papaver rhoeas (PAPRH); [6]", "value": 18, "unit": "%"}, {"measurement": "PAPRH Obs", "setting": "Papaver rhoeas (PAPRH); Propoxycarbazone-Na 15 g ai/ha", "value": 23, "unit": "%"}, {"measurement": "VIOTR Obs", "setting": "Viola tricolor (VIOTR); [6]", "value": 13, "unit": "%"}, {"measurement": "VIOTR Obs", "setting": "Viola tricolor (VIOTR); Propoxycarbazone-Na 15 g ai/ha", "value": 23, "unit": "%"}, {"measurement": "LAMPU Obs", "setting": "Lamium purpureum (LAMPU)", "value": 0, "unit": "%"}, {"measurement": "SETVI Obs", "setting": "Setaria viridis (SETVI); Propoxycarbazone-Na 7.5 g ha", "value": 0, "unit": "%"}, {"measurement": "SETVI Obs", "setting": "Setaria viridis (SETVI); Propoxycarbazone-Na 15 g ha", "value": 0, "unit": "%"}, {"measurement": "KCHSC Obs", "setting": "Kochia scoparia (KCHSC); [6]", "value": 13, "unit": "%"}, {"measurement": "KCHSC Obs", "setting": "Kochia scoparia (KCHSC); Propoxycarbazone-Na 15 g ai/ha", "value": 25, "unit": "%"}]}]}
